Consider 2 compounds from patent publication US20030022921A1, “Stable pharmaceutical formulation comprising torsemide modification II” (priority 2001, published 2003).

A short description of this data set: Polymorphic content by XRPD in bulk torsemide modification II on storage. Details: key to Polymorphic form detected (I or II): “I” is Torsemide Modification I; “II” is Torsemide Modification II. It is filed as physicochemical. The following applies: for Polymorphic form detected (I or II) / Polymorph Content / Polymorph Content: amount of Torsemide Modification I: bulk. The text has this: 1. The present procedure is used for the detection and quantitative determination of the presence of torsemide modification I in tablets wherein the active ingredient is high purity torsemide modification II. The present procedure is also used for the detection and quantitative determination of torsemide modification I in bulk high purity torsemide modification II, which is to be used as the active ingredient in tablets. The present method is based on the unique x-ray powder diffraction pattern of torsemide modification I that is characterized by a strong peak at two-theta 5.7±0.2°, the presence of which indicates the presence of torsemide modification I in a sample of high purity torsemide modification II. 2.1 Instrument: Philips x-ray powder diffractometer. Goniometer model PW 1050/70, Cu-tube, curved graphite monochromator. 2.2 Sample holder: A standard aluminum sample holder with a rectangular cavity 20*15*0.3 mm inside it. Scanning range: 2θ=4° to at least 22° Step: 0.05° Step duration: 0.5 4.1 Gently grind a small amount of sample powder in an agate mortar with the pestle. 4.2 Fill the rectangular cavity on the sample holder with the powder.

The mark [1] stands for this setting: first storage column (condition not given), 1 week.
[2] abbreviates: storage condition not given, 1 month.
Setting [3] is: storage condition not given, 2 months.
The mark [4] stands for this setting: storage condition not given, 2 weeks.

In the case of `Cc1cccc(Nc2ccncc2S(=O)(=O)NC(=O)NC(C)C)c1` [Bulk Lot No. 851700100, 1-Isopropyl-3-[(4-m-toluidino-3-pyridyl)-sulfonyl]urea], the “Polymorphic form detected (I or II)” value (storage 40° C., 75% RH, 1 month) is “II”; the “Polymorphic form detected (I or II)” value (storage 40° C., 75% RH, 2 months) was “II”; the “Polymorphic form detected (I or II)” value (storage 40° C., 75% RH, 2 weeks) was “II”; the “Polymorphic form detected (I or II)” value (storage 40° C., 75% RH, 3 months) is “II”; the “Polymorphic form detected (I or II)” value (storage 40° C., 75% RH, 4 months) is recorded as “II”; the “Polymorphic form detected (I or II)” value (storage 55° C., 1 month) is recorded as “II”. In addition, the “Polymorphic form detected (I or II)” value was “II” (storage 55° C., 1 week); “II” (storage 55° C., 2 months); “II” (storage 55° C., 2 weeks); “II” (storage 55° C., 3 months); “II” (storage 55° C., 4 months). Besides, the “Rearrangement into different polymorphic forms of torsemide” value (storage at 40° C. at 75% relative humidity for 3 months, tablet formulations or bulk active ingredient) is reported as “does not undergo any significant rearrangement”. In addition, the “Polymorphic stability during storage under stress conditions” value (listed as high purity torsemide modification II) is on record as “stable during storage under stress conditions for at least 3 months”.
Turning to `Cc1cccc(Nc2ccncc2S(=O)(=O)NC(=O)NC(C)C)c1` [Bulk No. 851700200, 1-Isopropyl-3-[(4-m-toluidino-3-pyridyl)-sulfonyl]urea], the “Polymorph Content” value (first storage column (condition not given), 1 month) was “I + II”; the “Polymorph Content” value under setting [1] is “II >> I”; the “Polymorph Content” value (first storage column (condition not given), 2 months) is “I + II”; the “Polymorph Content” value (first storage column (condition not given), 2 weeks) was “I + II”; the “Polymorph Content” value (first storage column (condition not given), 3 months) is “I > II”; the “Polymorph Content” value (first storage column (condition not given), 4 months) was “I + II”. Moreover, the “Polymorph Content” value by setting is: under setting [2], “II >> I”; under setting [3], “II >> I”; under setting [4], “II >> I”; (storage condition not given, 3 months) “I + II”; (storage condition not given, 4 months) “I + II”; (t = 0) “II >>> I”. Also, the “Polymorph Content: amount of Torsemide Modification I” value (from here on “Polymorph Content: amount”) under setting [1] is recorded as around 0.4%; the “Polymorph Content: amount” value under setting [2] is reported as around 1%; the “Polymorph Content: amount” value under setting [3] is around 6%; the “Polymorph Content: amount” value under setting [4] is around 0.5%; the “Polymorph Content: amount” value (t = 0) is listed as below 0.3%. In addition, the “Polymorphic stability during storage under stress conditions” value (listed as torsemide modification II that contains trace amounts of torsemide modification) is reported as “not stable during storage under stress condition for at least 3 months”.
